Measured values taken from US8933019B2, “Antiviral cell-penetrating peptides” (priority 2008, dated 2015).
Read-outs that look alike come from different tables or passages of the source. Bridge positions count the residues as written; N and C are the ends. Square brackets hold non-standard residues; d marks the D form. Peptide text beside a SMILES is read from it. R8 = C=CCCCCCC[C@@](C)(N)C(=O)O; S5 = C=CCCC[C@](C)(N)C(=O)O

Columns and labels:
[1] = Cytotoxicity, XTT method, MT-2 cells; type: cell-based, human; details: human, read-out: CC50 (μM) ± SD, cytotoxicity in MT-2 cells
Protocol: (§1) Cytotoxicity of peptides in MT-2 cells and PBMC was measured by the XTT [(sodium 3′-(1-(phenylamino)-carbonyl)-3,4-tetrazolium-bis(4-methoxy-6-nitro) bezenesulfonic acid hydrate)] method as previously described (Jiang et al., 2004). Briefly, for MT-2 cells, 100 μl of a peptide at graded concentrations was added to an equal volume of cells (1×10^5 cells/ml) in 96-well plates followed by incubation at 37° C. for 4 days, which ran parallel to the neutralization assay in MT-2 (except medium was added instead of virus). In the case of PBMC, 5×10^5 cells/ml were used and the cytotoxicity was measured after 7 days. After addition of XTT (PolySciences, Inc.), the soluble intracellular formazan was quantitated colorimetrically at 450 nm 4 hr later with a reference at 620 nm. The percent of cytotoxicity and the CC50 values were calculated as above (Table 2 and Table 3).

[2] = system: HIV-1 IIIB
Protocol: (§2) The inhibitory activity of NYAD-201, and related stapled peptides on infection by laboratory-adapted HIV-1 strains was determined as previously described (Jiang et al. J Exp. Med 174:1557-1563, 1991) with minor modifications. Azidothymidine (AZT) was used as a positive control in the infectivity assays. In brief, 1×10^4 MT-2 cells were infected with HIV-1 at 100 TCID50 (50% tissue culture infective dose) (0.01 MOI [multiplicity of infection]) in 200 μl RPMI 1640 medium containing 10% FBS in the presence or absence of peptides at graded concentrations overnight. The culture supernatants were then removed and fresh media containing freshly prepared test peptide were added. On the fourth day post-infection, 100 μl of culture supernatants were collected from each well, mixed with equal volume of 5% Triton X-100 and tested for p24 antigen by ELISA.
(§3) In addition, NYAD-201, NYAD-202 and NYAD-203 were also tested using several laboratory-adapted and primary isolates in MT-2 cells and PBMC (peripheral blood mononuclear cells), respectively.

[3] = system: Jurkat cells; test: Cytotoxicity, LDH leakage, Jurkat cells; type: cell-based; details: 30 min, 2 hr and 4 hr of exposure
Protocol: Cytotoxicity was also evaluated in Jurkat cells using a Promega LDH leakage detection kit. Jurkat cells were plated at 10^4 cells/well in a volume of 200 μl. The test was performed after 30 min, 2 hr and 4 hr of exposure to the NYAD-201, NYAD-202 and NYAD-203 compounds.

[4] = system: HIV-1 AZT-R; details: read-out: IC50 (μM ± SD), HIV-1 AZT-R; RT-resistant isolate, subtype B, MT-2, coreceptor X4
Protocol: as §2, §3

[5] = Cytotoxicity, XTT method, PBMC; type: cell-based; details: human
Protocol: as §1

[6] = system: HIV-1 IIIB; test: Release and infectivity of HIV-1 virus released from infected MT-2 cells after treatment; type: cell-based; details: 500 nM, normalized for p24, TCID50
Protocol: On the fourth day post-infection, the supernatants were collected and filtered with a 0.45 μm PVDF membrane. One aliquot of the supernatants from each sample was mixed 1:1 with a solution of 5% Triton X-100 for p24 quantification, and stored at 4° C., another aliquot was immediately frozen at −80° C. and used to compare the infectivity of the viral particles released by NYAD-201 and NYAD-202 treated cells to the viral particles released by untreated cells. The protein p24 was first quantified by sandwich-ELISA, then the viral samples were normalized for the p24 content and titered to calculate the TCID50. MT-2 cells were infected with a two fold dilutions of virus from NYAD-201 and NYAD-202 treated and untreated cells. […] On the fourth day post infection supernatants were collected for p24 quantification by sandwich-ELISA and the TCID50 was calculated by the Spearman-Karber statistical method. […]
For these reasons, not only the quantity but also the quality of the viral particles released in the supernatant was evaluated. First, the p24/viral particles released in the supernatant following NYAD-201 and NYAD-202 treatment were quantified, then starting with the same amount of p24 per sample, the viruses released in the supernatant were titered. The TCID50 was calculated and expressed as percentage infectivity with respect to the untreated positive control. […]

[7] = read-out: IC50 (μM) ± SD, antiviral activity against HIV-1 IIIB, MT-2 cells, p24 production, fourth day post-infection

CSCC[C@@H]1NC(=O)[C@H](Cc2c[nH]c3ccccc23)NC(=O)[C@@](C)(NC(=O)[C@H](CCCCN)NC(=O)[C@@H](NC(=O)[C@H](C)NC(=O)[C@H](CCC(N)=O)NC(=O)[C@H](C)N)C(C)C)CCCC=CCCC[C@@](C)(C(=O)N[C@H](C(=O)N[C@@H](CC(C)C)C(=O)N[C@@H](CCCCN)C(=O)N[C@H](C(=O)N[C@@H](C)C(=O)N[C@@H](CCC(=O)O)C(N)=O)C(C)C)[C@@H](C)O)NC(=O)[C@H](CCC(=O)O)NC1=O [NYAD-220, AQAVKXWMEXTLKVAE] (H-AQAVK[S5]WME[S5]TLKVAE-NH2; staple 6-10)
CC50 at 4 days [1]: > 105 µM | IC50 [2, 7]: > 52.7 µM

CSCC[C@@H]1NC(=O)[C@H](Cc2c[nH]c3ccccc23)NC(=O)[C@](C)(NC(=O)[C@H](CCCCN)NC(=O)[C@@H](NC(=O)[C@H](C)NC(=O)[C@H](CCC(N)=O)NC(=O)[C@H](C)N)C(C)C)CCCCCCC=CCCC[C@@](C)(C(=O)N[C@H](C(=O)N[C@@H](C)C(N)=O)C(C)C)NC(=O)[C@H](CC(C)C)NC(=O)[C@H]([C@@H](C)O)NC(=O)[C@H](CCC(=O)O)NC(=O)[C@H]([C@@H](C)O)NC1=O [NYAD-221, AQAVKZWMTETLXVA] (H-AQAVK[R8]WMTETL[S5]VA-NH2; staple 6-13)
CC50 at 4 days [1]: > 140 µM | IC50 [2, 7]: 7.97 ± 1.03 µM

CSCC[C@@H]1NC(=O)[C@H](Cc2c[nH]c3ccccc23)NC(=O)[C@@](C)(NC(=O)[C@H](CCCCN)NC(=O)[C@@H](NC(=O)[C@H](C)NC(=O)[C@H](CCC(N)=O)NC(=O)[C@H](C)N)C(C)C)CCCC=CCCC[C@@](C)(C(=O)N[C@H](C(=O)N[C@@H](CC(C)C)C(=O)N[C@@H](CC(C)C)C(=O)N[C@@H](CCCCN)C(=O)N[C@@H](C)C(=O)N[C@@H](CC(N)=O)C(=O)N[C@@H](C)C(=O)N[C@@H](CCC(=O)O)C(N)=O)[C@@H](C)O)NC(=O)[C@H]([C@@H](C)O)NC1=O [NYAD-214, AQAVKXWMTXTLLKANAE] (H-AQAVK[S5]WMT[S5]TLLKANAE-NH2; staple 6-10)
CC50 at 4 days [1]: > 48 µM | IC50 [2, 7]: 17.4 ± 0.9 µM

CSCC[C@@H]1NC(=O)[C@H](Cc2c[nH]c3ccccc23)NC(=O)[C@@](C)(NC(=O)[C@H](CCCCN)NC(=O)[C@@H](NC(=O)[C@H](CCC(=O)O)NC(=O)[C@H](CCC(N)=O)NC(=O)[C@H](C)N)C(C)C)CCCC=CCCC[C@@](C)(C(=O)N[C@H](C(=O)N[C@@H](CC(C)C)C(=O)N[C@@H](CC(C)C)C(=O)N[C@H](C(=O)N[C@@H](C)C(=O)N[C@@H](CCCCN)C(=O)N[C@@H](CCCCN)C(=O)N[C@@H](CCCCN)C(N)=O)C(C)C)[C@@H](C)O)NC(=O)[C@H]([C@@H](C)O)NC1=O [NYAD-203, AQEVKXWMTXTLLVAKKK] (H-AQEVK[S5]WMT[S5]TLLVAKKK-NH2; staple 6-10)
Cytotoxicity in Jurkat cells (LDH leakage) [3]: more toxic at the two higher doses | CC50 at 4 days [1]: 13.2 ± 0.5 µM | IC50 ([2]; read-out: IC50 (μM ± SD), HIV-1 IIIB, laboratory strain, subtype B, MT-2, coreceptor X4): 6.29 ± 0.54 µM | IC50 [2, 7]: 6.29 ± 0.54 µM | IC50 [4]: 11.1 ± 3.82 µM | CC50 at 7 days [5]: 16 ± 1.47 µM

CC(C)C[C@H](NC(=O)[C@H](CC(C)C)NC(=O)[C@@H](NC(=O)[C@]1(C)CCCC=CCCC[C@](C)(NC(=O)[C@H](CCCCN)NC(=O)[C@H](Cc2c[nH]c3ccccc23)NC(=O)[C@H](C)NC(=O)[C@H](CCC(N)=O)NC(=O)[C@H](C)N)C(=O)N[C@@H](Cc2c[nH]c3ccccc23)C(=O)N[C@@H](C)C(=O)N[C@@H]([C@@H](C)O)C(=O)N1)[C@@H](C)O)C(=O)N[C@H](C(=O)N[C@@H](C)C(=O)N[C@@H](CCC(=O)O)C(N)=O)C(C)C [NYAD-219, AQAWKXWATXTLLVAE] (H-AQAWK[S5]WAT[S5]TLLVAE-NH2; staple 6-10)
CC50 at 4 days [1]: > 106 µM | IC50 [2, 7]: 3.7 ± 0.06 µM

CC(C)C[C@@H]1NC(=O)[C@H]([C@@H](C)O)NC(=O)[C@H](CCC(=O)O)NC(=O)[C@H]([C@@H](C)O)NC(=O)[C@H](C)NC(=O)[C@H](Cc2c[nH]c3ccccc23)NC(=O)[C@](C)(NC(=O)[C@H](CCCCN)NC(=O)[C@H](Cc2c[nH]c3ccccc23)NC(=O)[C@H](C)NC(=O)[C@H](CCC(N)=O)NC(=O)[C@H](C)N)CCCCCCC=CCCC[C@@](C)(C(=O)N[C@H](C(=O)N[C@@H](C)C(=O)N[C@@H](CC(N)=O)C(N)=O)C(C)C)NC1=O [NYAD-222, AQAWKZWATETLXVAN] (H-AQAWK[R8]WATETL[S5]VAN-NH2; staple 6-13)
CC50 at 4 days [1]: > 130 µM | IC50 [2, 7]: 9.3 ± 1.6 µM

CSCC[C@H](NC(=O)[C@H](Cc1c[nH]c2ccccc12)NC(=O)[C@H](CC(N)=O)NC(=O)[C@H](CCCCN)NC(=O)[C@@H](NC(=O)[C@H](C)NC(=O)[C@H](CCC(N)=O)NC(=O)[C@H](C)N)C(C)C)C(=O)N[C@H](C(=O)N[C@@]1(C)CCCC=CCCC[C@@](C)(C(=O)N[C@@H](C)C(N)=O)NC(=O)[C@H](CC(C)C)NC(=O)[C@H](CC(C)C)NC(=O)[C@H]([C@@H](C)O)NC1=O)[C@@H](C)O [NYAD-218, AQAVKNWMTXTLLXA] (H-AQAVKNWMT[S5]TLL[S5]A-NH2; staple 10-14)
CC50 at 4 days [1]: 67.3 ± 4.4 µM | IC50 [2, 7]: 4.6 ± 0.4 µM

CC[C@H](C)[C@H](N)C(=O)N[C@@H](C)C(=O)N[C@@H](CCC(N)=O)C(=O)N[C@@H](C)C(=O)N[C@@H](CCCCN)C(=O)N[C@H](C(=O)N[C@@H](CCC(=O)O)C(=O)N[C@@]1(C)CCCC=CCCC[C@@](C)(C(=O)N[C@H](C(=O)N[C@@H](CC(C)C)C(=O)N[C@@H](CC(C)C)C(=O)N[C@H](C(=O)N[C@@H](C)C(=O)N[C@@H](CC(N)=O)C(N)=O)C(C)C)[C@@H](C)O)NC(=O)[C@H]([C@@H](C)O)NC(=O)[C@H](CCSC)NC(=O)[C@H](Cc2c[nH]c3ccccc23)NC1=O)C(C)C [NYAD-223, IAQAKVEXWMTXTLLVAN] (H-IAQAKVE[S5]WMT[S5]TLLVAN-NH2; staple 8-12)
CC50 at 4 days [1]: > 124 µM | IC50 [2, 7]: 7.2 ± 1.2 µM

Cc1c(O)cccc1C(=O)N[C@@H](CSc1ccccc1)[C@H](O)CN1C[C@H]2CCCC[C@H]2C[C@H]1C(=O)NC(C)(C)C [NFV, nelfinavir, reference compound]
Infectivity of virus produced by treated cells [6]: not infectious or slightly infectious

CSCC[C@@H]1NC(=O)[C@H](CCCCN)NC(=O)[C@@](C)(NC(=O)[C@H](Cc2c[nH]c3ccccc23)NC(=O)[C@@H](NC(=O)[C@H](CC(C)C)NC(=O)[C@H](CCC(N)=O)NC(=O)[C@@H](N)CCC(=O)O)C(C)C)CCCC=CCCC[C@@](C)(C(=O)N[C@@H](C)C(=O)N[C@@H](CC(C)C)C(=O)N[C@@H](C)C(=O)N[C@H](C(=O)N[C@H](C(N)=O)[C@@H](C)O)C(C)C)NC(=O)[C@H]([C@@H](C)O)NC1=O [NYAD-215, EQLVWXKMTXALAVT, reference compound] (H-EQLVW[S5]KMT[S5]ALAVT-NH2; staple 6-10)
CC50 at 4 days [1]: > 112 µM | IC50 [2, 7]: > 56 µM

CSCC[C@@H]1NC(=O)[C@H](Cc2c[nH]c3ccccc23)NC(=O)[C@@](C)(NC(=O)[C@H](CCCCN)NC(=O)[C@@H](NC(=O)[C@H](C)NC(=O)[C@H](CCC(N)=O)NC(=O)[C@H](C)N)C(C)C)CCCC=CCCC[C@@](C)(C(=O)N[C@H](C(=O)N[C@@H](CC(C)C)C(=O)N[C@@H](CC(C)C)C(=O)N[C@H](C(=O)N[C@@H](CCC(=O)O)C(=O)N[C@@H](CC(N)=O)C(=O)N[C@@H](C)C(N)=O)C(C)C)[C@@H](C)O)NC(=O)[C@H]([C@@H](C)O)NC1=O [NYAD-212, AQAVKXWMTXTLLVENA] (H-AQAVK[S5]WMT[S5]TLLVENA-NH2; staple 6-10)
CC50 at 4 days [1]: > 102 µM | IC50 [2, 7]: 5.95 ± 0.33 µM
